The values below come from US7662767B2, “Polynucleotide intercalator interceptors and inhibitors” (Materials Evolution and Development USA, Inc., priority 2000, dated 2010).

Structures are written as SMILES. Like-named read-outs stand apart in the source and are kept apart here.

Test [1] is described as follows: AO-CAF complex, spectrofluorometry λex 485 nm / λem 530 nm. In kind it is binding. To be noted: AO [2 μM], CAF [1-20 μM]. Here is the method: Spectrofluorometric analysis was performed at an AO concentration of 2 μM to determine the effect of CAF and a physiological concentration of NaCl on the fluorescence spectra of AO. CAF was added over a series of CAF:AO molecular ratios ranging from 2500:1 to 0.5:1 and the fluorescence intensity determined at λem 530 nm and 635 nm. The fluorescence intensity was again determined following the addition of NaCl to a final concentration 150 mM and pH 7.0 to each test well containing both AO and CAF.
The data in FIG. 3-5A depicts the mean fluorescence values at λem 530 nm of 2 μM AO with CAF in the absence of, and in the presence of, 150 mM NaCl over a range of CAF to AO molecular ratios from 0.5 to 10.0 (1 μM to 20 μM CAF). The example shown in FIG. 3-5A is a plot of fluorescence intensity of AO excited at λex 485 nm and monitored at λem 530 nm versus CAF concentration to show the effect of CAF and NaCl on the fluorescence of AO and the formation of the AO-CAF complex. Solutions of 2 μM AO were analyzed using spectrofluorometric techniques in the presence of various concentrations of CAF with and without addition of NaCl [150 mM]. […] However at the CAF concentration of 5 mM (molecular ratio 2,500:1) there was a significant change in the mean fluorescence intensity with the value going from 1,245±53 for CAF and AO alone to 1,150±34 with the addition of 150 mM NaCl. […]

In another test the test system is herring sperm dsDNA. Put plainly: Acridine orange titrated with dsDNA, absorbance. The class given is binding. The conditions noted are these: AO-DNA. The text has this: Experiments were undertaken to characterize the interaction of AO with DNA over a range of DNA base pairs (bp) to AO ratios in the absence of, and in the presence of, a physiological concentration of NaCl. […] The example shown in FIG. 3-6 is a dsDNA bp: AO ratio of selected spectra denoting important transitions within the titration series are denoted with bolder lines. Some of the spectral series is not shown to simplify the data presentation. At bp: AO ratios between 0.0 and 0.75, prevalent peaks occur at 8abs of 468 nm and 492 nm. […] The absorbance spectra from bp: AO ratios above 0.75 denote a definitive red-shift in absorbance with the simultaneous creation of two distinct peaks, one at 475 nm and the other at 503 nm. With continued additions of aliquots of DNA, the absorbance peak near 468 nm is still apparent while the initial main absorbance peak at 492 nm is minimally detectable. […] Additionally, at bp:AO ratios of about 1.72. The absorbance peak near λabs 503 nm increased in amplitude with each additional aliquot of DNA. […] The association constant was calculated from a plot of delta absorbance values at 504 nm versus DNA concentration (see inset FIG. 3-7). The DNA concentrations ranged from 30:M to 170:M.

The conditions of test [2]: AO-AO, AO [20 μM], Kapuscinski & Kimmel, 1993, cited from earlier work.

Regarding `Cn1c(=O)c2c(ncn2C)n(C)c1=O` [1,3,7-trimethyl xanthine (caffeine), 1,3,7-trimethyl xanthine], the “K ± S.D.” value is 216 ± 20 M⁻¹ in test [1] (Fluorescence plus NaCl 150 mM) and 254 ± 27 M⁻¹ in test [1] (Fluorescence, absence of NaCl).
Take `CN(C)c1ccc2cc3ccc(N(C)C)cc3nc2c1.Cl` [AO, 3,6-bis[dimethylamino]acridine hydrochloride]: the “K ± S.D.” value is 37,660±431 M^−1 in the test on herring sperm dsDNA (Absorbance (504 nm), AO [3 μM], DNA [5-170 μM], hydrochloride); 37,660 ± 431 M^−1 with herring sperm dsDNA (Absorbance (504 nm), AO [3 μM], DNA [5-170 μM], listed as AO-DNA, hydrochloride); 33,510 ± 285 M^−1 with herring sperm dsDNA (Absorbance, AO [0.1-3 μM], DNA [100 μM]); 31,960 ± 316 M^−1 in the test with herring sperm dsDNA (Absorbance, AO [0.8-3.4 μM], DNA [20 μM]); 29,100 M^−1 in test [2] (Absorbance (mathematical model)); 42,500 M^−1 in test [2] (Absorbance plus NaCl 150 mM).
